Source: patent US20250206722A1, “SMALL MOLECULE INHIBITORS OF TEA DOMAIN FAMILY MEMBERS” (The Scripps Research Institute, priority 2022, published 2025)

Columns and labels:
Type in all cases: cell-based
NCI-H226 cells = assay: NCI-H226 proliferation assay (in house); settings: Homo sapiens, 120 h, 5 days, Cell TiterGlo, 20-point 1:2 dilution from 20 μM
Summary of the method: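 Viability by CellTiter-Glo luminescence after 5-day compound exposure at 37 °C, 5% CO2. Compounds added 24 h post-seeding (500 cells/well, RPMI 1640 with 10% FBS) as 20-point, 2-fold series from 20 μM final, triplicate wells.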

[1] = tested on: transcriptional activity of TEADs; assay: TEAD reporter assay (MCF7 TEAD-LUC reporter cells); settings: Homo sapiens, 24 hours, BrightGlo luminescence
Summary of the method: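 Luminescence (BrightGlo) was read after 24 h of compound treatment at 37 °C, 5 % CO2. Cells had been seeded at 5,000 per well in DMEM with 10 % FBS and insulin and rested 24 h first. Dosing used 20 points, 1:2 dilution from 20 μM final, triplicates.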

IMR32 cells = assay: IMR32 cytotoxicity assay; settings: Homo sapiens, IMR-32, 72 h, 3 days, Cell TiterGlo
Protocol: IMR32 cells were obtained from American Type Culture Collection (ATCC, CCL-127) and cultured in DMEM (Corning, 10-013-CV) supplemented with 10% fetal bovine serum (Gibco, 10438-026) and 1% penicillin-streptomycin (Gibco, 15070063). Cells were trypsinized, resuspended in growth medium, and diluted to a concentrated of 20,000 cells/mL. 1,000 cells, 50 μL of cell suspension, per well were then plated in a white 384-well plate (Corning) and incubated at 37° C., 5% CO2. After 24 hours incubation, 100 nL of test compounds in DMSO, 20-point 1:2 dilution starting from 20 μM (final concentration) in triplicate, were transferred to each well using an Agilent Bravo instrument outfitted with a pintool head. Cells were incubated at 37° C., 5% CO2 for 3 days followed by the addition of 30 μL of Cell TiterGlo (Promega; diluted 1:6 in water) to each well and luminescence values recorded using an EnVision plate reader. […]

Row | IC50 (NCI-H226 cells) | IC50 [1] | SMILES | IC50 (IMR32 cells)
1 | 0.198 µM | 0.023 µM | C=CC(=O)N1CCN(c2nccnc2Nc2ncc(C(F)(F)F)cn2)CC1 [Example 41, 1-(4-(3-((5-(trifluoromethyl)pyrimidin-2-yl)amino)pyrazin-2-yl)piperazin-1-yl)prop-2-en-1-one] | > 20 µM
2 | 0.078 µM | 0.007 µM | C=CC(=O)N1CCN(c2nccnc2OC2CCC(F)(F)CC2)CC1 [Example 93, 1-(4-{3-[(4,4-difluorocyclohexyl)oxy]pyrazin-2-yl}piperazin-1-yl) prop-2-en-1-one] | > 20 µM
3 | 0.164 µM | 0.0297 µM | C=CC(=O)N1CCCN(c2nccnc2Nc2ccc(C(F)(F)F)cc2)CC1 [Example 27, 1-(4-(3-((4-(trifluoromethyl)phenyl)amino)pyrazin-2-yl)-1,4-diazepan-1-yl)prop-2-en-1-one] | 10 µM
4 | 0.91 µM | 0.279 µM | C=CC(=O)N1CCN(c2ccnc(Nc3ccc(C(F)(F)F)cc3)n2)CC1 [Example 123, 1-[4-(2-{[4-(trifluoromethyl)phenyl]amino}pyrimidin-4-yl)piperazin-1-yl]prop-2-en-1-one] | 4.87 µM
5 | 5.36 µM | 2.12 µM | C=C(CN1CCCC1)C(=O)N1CCN(c2nccnc2Nc2ccc(C(F)(F)F)cc2)CC1 [Example 189, 2-(pyrrolidin-1-ylmethyl)-1-(4-(3-((4-(trifluoromethyl)phenyl)amino)pyrazin-2-yl)piperazin-1-yl)prop-2-en-1-one] | 9.3 µM
6 | 5.25 µM | 2.22 µM | N#CCC(=O)N1CCN(c2nccnc2Nc2ccc(C(F)(F)F)cc2)CC1 [Example 171, 3-oxo-3-(4-(3-((4-(trifluoromethyl)phenyl)amino)pyrazin-2-yl)piperazin-1-yl)propanenitrile] | > 20 µM

Continued, compound first:

Row | SMILES | IC50 (NCI-H226 cells) | IC50 [1] | IC50 (IMR32 cells)
7 | C=CC(=O)NC1CCN(c2nccnc2Nc2ccc(C(F)(F)F)cc2)C1 (stereo not drawn) [Example 7, N-(1-(3-((4-(trifluoromethyl)phenyl)amino)pyrazin-2-yl)pyrrolidin-3-yl)acrylamide] | 0.195 µM | 0.0286 µM | > 10 µM
8 | O=C(C(F)Cl)N1CCN(c2nccnc2Nc2ccc(C(F)(F)F)cc2)CC1 (stereo not drawn) [Example 169, 2-chloro-2-fluoro-1-(4-(3-((4-(trifluoromethyl)phenyl)amino)pyrazin-2-yl)piperazin-1-yl)ethan-1-one] | 0.037 µM | 0.0131 µM | > 10 µM
9 | CC#CC(=O)N1CCN(c2nccnc2Nc2ccc(C(F)(F)F)cc2)CC1 [Example 174, 1-(4-(3-((4-(trifluoromethyl)phenyl)amino)pyrazin-2-yl)piperazin-1-yl)but-2-yn-1-one] | > 20 µM | > 20 µM | > 10 µM
10 | CN(C)C/C=C/C(=O)N1CCN(c2nccnc2Nc2ccc(C(F)(F)F)cc2)CC1 [Example 167, 4-(dimethylamino)-1-(4-(3-((4-(trifluoromethyl)phenyl)amino)pyrazin-2-yl)piperazin-1-yl)but-2-en-1-one] | 0.108 µM | 1 µM | 10 µM
11 | C=CC(=O)N1CCN(c2nccnc2Nc2ccc(C(F)(F)F)cc2)C[C@H]1CC#N [Example 21, (R)-2-(1-acryloyl-4-(3-((4-(trifluoromethyl)phenyl)amino)pyrazin-2-yl)piperazin-2-yl)acetonitrile] | 0.32 µM | 0.043 µM | > 10 µM
12 | C#CCN(C)C/C=C/C(=O)N1CCN(c2nccnc2Nc2ccc(C(F)(F)F)cc2)CC1 [Example 179, (E)-4-(methyl(prop-2-yn-1-yl)amino)-1-(4-(3-((4-(trifluoromethyl)phenyl)amino)pyrazin-2-yl)piperazin-1-yl)but-2-en-1-one] | 2.48 µM | > 10 µM | > 20 µM
13 | C=CC(=O)N1CCN(c2nccnc2Nc2ccc(C(F)(F)F)cc2)C[C@@H]1CO [Example 15, (R)-1-(2-(hydroxymethyl)-4-(3-((4-(trifluoromethyl)phenyl)amino)pyrazin-2-yl)piperazin-1-yl)prop-2-en-1-one] | > 20 µM | 5 µM | 10 µM
